Assay results published in patent US20240352066A1, “ANTIMICROBIAL COMPOUNDS AND THE METHOD OF USE” (priority 2021, published 2024).
In brackets after ≈: the same amount, converted by molar mass. Read-outs that look alike come from different tables or passages of the source. Where a SMILES comes first, the peptide text is derived from it. [ ]: non-standard residue; d: D form. The star is where a group is joined. Gly(N(CH2)2(3-indolyl)) = O=C(O)CNCCc1c[nH]c2ccccc12; Gly(Nα-4-Cl-benzyl) = O=C(O)CNCc1ccc(Cl)cc1; N(4-Br-benzyl)Gly = O=C(O)CNCc1ccc(Br)cc1; N(2-thienylmethyl)Gly = O=C(O)CNCc1cccs1; N(tridecyl)Gly = CCCCCCCCCCCCCNCC(=O)O; NBzl(4-I)Gly = O=C(O)CNCc1ccc(I)cc1; Gly(N-2-aminoethyl) = NCCNCC(=O)O; NFurfurylGly = O=C(O)CNCc1ccco1; X2 = CCCCCCCCN(CCCCCCCC)CC(=O)*; Gly(N-cHex) = O=C(O)CNC1CCCCC1; X1 = CCCCCCN(CCCCCC)CC(=O)*; Nphe = O=C(O)CNCc1ccccc1; Nlys = NCCCCNCC(=O)O; Sar = CNCC(=O)O

What was measured:
C. neoformans [1] = experiment: microbe, parasite or virus in culture; assay type: cell-based, Cryptococcus neoformans
Experimental: Cell solution was diluted into RPMI-MOPS (1:100) followed by another dilution into RPMI-MOPS (1:20). […] Plates were incubated for 72 hours at 35° C. MIC was determined as the lowest concentration of individual compound or combined compounds inhibiting pathogen growth. Fractional inhibitory concentration index (FICi) was determine using the following equation: FICi values were interpreted as follows: FICi<0.5 synergistic; 0.5≤FICi≤4 indifferent; FICi>4 antagonist (Johnson et al., Antimicrob. Agents Chemother. 48, 693-715 (2004)).

C. neoformans [2] = assay type: cell-based, Cryptococcus neoformans; details: 72 h
Experimental: The minimum inhibitory concentration (MIC) of peptoids against fungal pathogens C. albicans and C. neoformans was determined following CLSI guidelines (CLSI. Reference method for broth dilution antifungal susceptibility testing of yeasts; approved standard-third edition; CLSI document M27-A3. (Clinical and Laboratory Standards Institute, 2008). […] This inoculant was diluted 1:100 into RPMI-MOPS and then further diluted 1:20 into RPMI-MOPS. 198 μL of inoculant was seeded into each well of a 96 well black-walled plate. 2-fold serial dilutions of 100× peptoid solutions were prepared in water and 2 μL of peptoid were added to each well in triplicate. […] MIC was defined as the lowest concentration of compound preventing fungal growth. This assay was repeated 3 times on separate days with each compound. […] The addition of 0.1 mL cell solution to 9.9 mL of RPMI-MOPS produced a 1:100 cell solution. After vortexing, 0.5 mL of the […] was added to 9.5 mL RPMI-MOPS to produce a 1:20 cell solution. 198 μL of the 1:20 solution was added to the wells of an opaque 96-well plate, apart from the wells designated for the medial control. […] Amphotericin B was used as a positive control, and sterile water was used for the vehicle control. The plates were incubated for 72 hours at 35° C. After incubation, the concentration of compound resulting in no visual growth was recorded as the MIC. All assays performed in biological triplicate on different days.

[3] = Mammalian cytotoxicity, MTT, HepG2; assay type: cell-based, human; details: human, HepG2 hepatocellular carcinoma cells
Experimental: Hepatocellular carcinoma (HepG2), mouse fibroblast (3T3), human lung (HPL1A), and human keratinocyte (HaCat) cells were cultured in Dulbecco modified eagle media (DMEM) containing 10% fetal bovine serum (FBS) and 1% penicillin, streptomycin, and glutamine (PSG) at 37° C. and 5% CO2. Cells were collected and adjusted to […] to 4×10^5 cells/mL in phenol-red free DMEM and plated (100 μL) 96 well plates. 2-fold serial dilutions of 10× peptoid (11.1 μL) were added to each well in triplicate. Water (vehicle) was used as a negative control. Plates were incubated at 37° C. in 5% CO2 for 72 hours. Thiazolyl blue tetrazolium bromide (MTT) was added to each well (5 mg/mL; 20 μL) and incubated for 3 hours. Media was removed, DMSO (100 μL) was added, and plates were incubated at 37° C. for 10 minutes. Plates were read on a SpectraMax M5 plate reader (Abs. 570 nm). The concentration of compound resulting in a 50% reduction in growth compared to control (toxicity dose 50%; TD50) was determined using GraFit. This procedure was repeated three times on separate days.
Cytotoxicity against HepG2 hepatocellular carcinoma cells was done as previously described (Green et al. ACS infectious diseases, (2022); Corson et al. ACS medicinal chemistry letters 7 12, 1139-1144 (2016)). HepG2 cells were maintained in culture in T-75 flasks using Dulbecco's Modified Eagle's Media (DMEM) with phenol red pH indicator and supplemented with 10% fetal bovine serum (FBS) and 1% penicillin, streptomycin, and glutamine (PSG). The cells were incubated at 37° C. and 5% CO2 in a humidified incubator until desired confluency was achieved. The media was removed from the flask, and the cells were washed 1× with 10 mL of phosphate-buffered saline (PBS; 11.8 mM phosphate, 140.4 mM NaCl; pH 7.4) which was then discarded. To remove the adhered cells from the flask, 2 mL of trypsin was added, and the cells were incubated for 10 minutes. To quench the trypsin, 8 mL of phenol red-free DMEM with 10% FBS and 1% PGS was added, and the cell solution was transferred to a 15 mL conical tube. After the cells were pelleted by centrifugation at 1000 rpm for 5 minutes, the supernatant was poured off and cells resuspended in the volume of phenol red-free media needed for the assay. Cell concentration was determined by counting with a hemocytometer, and the solution was diluted with media until a concentration of 1×10^5 cells/mL was achieved. A 100 μL aliquot of cell solution was added to each well of a 96-well plate, apart from the 3 wells used for a media control. Cells were incubated for 2-3 hours at 37° C. and 5% CO2 until cells were adherent.
Compound stocks of 20 mg/mL were used to prepare 2-fold serial dilutions of each compound in sterile water, giving final concentrations of 200, 100, 50, 25, 12.5, 6.25, 3.13 and 1.56 μg/mL. 11.1 μL of prepared compound solutions was added to the appropriate wells in triplicate. A negative vehicle control of sterile water, as well as the aforementioned media control, were used. The plates were incubated for 72 hours at 37° C. and 5% CO2. After incubation, 20 μL of 5 mg/mL 3-(4,5-dimethylthiazol-2-yl)-2,5-diphenyltetrazolium bromide (MTT) in water was added to each well. The plate was incubated for 3 hours at 37° C. and 5% CO2. Media was removed from each well using a sterile glass Pasteur pipette. 100 μL of DMSO was added to each well and incubated for 15 minutes at 37° C. Absorbance was read at 570 nm using a SpectraMax M5 Plate Reader. This MTT assay was performed in biological duplicate unless discrepant results were observed. If this was the case, the assay was performed in biological triplicate for further verification. The reported value is the average of biological replicates with standard deviation.

| Structure (SMILES) | C. neoformans MIC (C. neoformans [2]) [µg/mL] | CC50 at 72 h [3] [µg/mL] | also measured |
| --- | --- | --- | --- |
| C[C@@H]1[C@H](O)[C@@H](C)/C=C/C=C/C=C/C=C/C=C/C=C/C=C/[C@H](O[C@@H]2O[C@H](C)[C@@H](O)[C@H](N)[C@@H]2O)C[C@@H]2O[C@](O)(C[C@@H](O)C[C@@H](O)[C@H](O)CC[C@@H](O)C[C@@H](O)CC(=O)O[C@H]1C)C[C@H](O)[C@H]2C(=O)O [Amphotericin B] |  |  | interpretation of combination with RMG8-8 (C. neoformans [1]; FICi<0.5 synergistic, 0.5≤FICi≤4 indifferent, FICi>4 antagonist): mild additive effect; Combination MIC RMG8-8:Drug, RMG8-8 part (C. neoformans [1]; RMG8-8 concentration in combination with the named drug): 0.8 µg/mL; MIC (compound alone) (C. neoformans [1]; checkerboard, 72 hours at 35° C.): 0.25 µg/mL; Combination MIC RMG8-8:Drug, Drug part (C. neoformans [1]; drug concentration in combination with RMG8-8): 0.06 µg/mL; FICi (C. neoformans [1]; named drug in combination with RMG8-8): 0.75 |
| CCCCCCCCCCCCCNCC(=O)N(CC(=O)N(CCCCN)CC(=O)N(CCCCN)CC(=O)N(CC(N)=O)C1CCCCC1)C1CCCCC1 [Compound 2] (H-[N(tridecyl)Gly][Gly(N-cHex)][Nlys][Nlys][Gly(N-cHex)]-NH2) | 3.13 | 165 ± 97 (≈ 208 µM) |  |
| CCCCCCN(CCCCCC)CC(=O)N(CC(=O)N(CCCCN)CC(=O)N(CCN)CC(=O)N(CC(N)=O)C1CCCCC1)C1CCCCC1 [Compound 6] (X1-[Gly(N-cHex)][Nlys][Gly(N-2-aminoethyl)][Gly(N-cHex)]-NH2) | 100 |  | CC50 at 72 h ([3]; Example 2, 72 hours, MTT, read-out: HepG2 TD50): > 200 µg/mL |
| CCCCCCCCN(CCCCCCCC)CC(=O)N(CC(=O)N(CCCCN)CC(=O)N(CCN)CC(=O)N(CC(N)=O)C1CCCCC1)C1CCCCC1 [Compound 7] (X2-[Gly(N-cHex)][Nlys][Gly(N-2-aminoethyl)][Gly(N-cHex)]-NH2) | 6.25 | 162 ± 29 (≈ 201 µM) |  |
| CCCCCCCCCCCCCNCC(=O)N(CC(=O)N(CCCCN)CC(=O)N(CCN)CC(=O)N(CC(N)=O)Cc1ccccc1)Cc1ccccc1 [Compound 15] (H-[N(tridecyl)Gly][Nphe][Nlys][Gly(N-2-aminoethyl)][Nphe]-NH2) | 1.56 to 3.13 | 145 ± 96 (≈ 186 µM) |  |
| CCCCCCCCCCCCCNCC(=O)N(CC(=O)N(CCCCN)CC(=O)N(CCN)CC(=O)N(CC(N)=O)Cc1ccc(Cl)cc1)Cc1ccc(Cl)cc1 [Compound 18] (H-[N(tridecyl)Gly][Gly(Nα-4-Cl-benzyl)][Nlys][Gly(N-2-aminoethyl)][Gly(Nα-4-Cl-benzyl)]-NH2) | 3.13 | 71.8 ± 24 (≈ 84.7 µM) |  |
| CCCCCCCCCCCCCNCC(=O)N(CC(=O)N(CCCCN)CC(=O)N(CCN)CC(=O)N(CC(N)=O)Cc1ccc(Br)cc1)Cc1ccc(Br)cc1 [Compound 19] (H-[N(tridecyl)Gly][N(4-Br-benzyl)Gly][Nlys][Gly(N-2-aminoethyl)][N(4-Br-benzyl)Gly]-NH2) | 3.13 | 72.4 ± 20 (≈ 77.3 µM) |  |
| CCCCCCCCCCCCCNCC(=O)N(CC(=O)N(CCCCN)CC(=O)N(CCN)CC(=O)N(CC(N)=O)Cc1ccc(I)cc1)Cc1ccc(I)cc1 [Compound 20] (H-[N(tridecyl)Gly][NBzl(4-I)Gly][Nlys][Gly(N-2-aminoethyl)][NBzl(4-I)Gly]-NH2) | 6.25 | 72.2 ± 24 (≈ 70 µM) |  |
| CCCCCCCCCCCCCNCC(=O)N(CC(=O)N(CCCCN)CC(=O)N(CCN)CC(=O)N(CC(N)=O)c1cccc2ccccc12)c1cccc2ccccc12 [Compound 21] | 6.25 | 118 ± 19 (≈ 139 µM) |  |
| CCCCCCCCCCCCCNCC(=O)N(CC(=O)N(CCCCN)CC(=O)N(CCN)CC(=O)N(CC(N)=O)c1ccc2c(c1)CCC2)c1ccc2c(c1)CCC2 [Compound 22] | 1.56 to 3.13 | 91 ± 4 (≈ 109 µM) |  |
| CCCCCCCCCCCCCNCC(=O)N(CCc1c[nH]c2ccccc12)CC(=O)N(CCCCN)CC(=O)N(CCN)CC(=O)N(CCc1c[nH]c2ccccc12)CC(N)=O [Compound 23] (H-[N(tridecyl)Gly][Gly(N(CH2)2(3-indolyl))][Nlys][Gly(N-2-aminoethyl)][Gly(N(CH2)2(3-indolyl))]-NH2) | 1.56 to 3.13 | 85 ± 10 (≈ 96 µM) |  |
| CCCCCCCCCCCCCNCC(=O)N(CC(=O)N(CCCCN)CC(=O)N(CCN)CC(=O)N(CC(N)=O)Cc1ccco1)Cc1ccco1 [Compound 24] (H-[N(tridecyl)Gly][NFurfurylGly][Nlys][Gly(N-2-aminoethyl)][NFurfurylGly]-NH2) | 3.13 to 6.25 | 143 ± 94 (≈ 188 µM) |  |
| CCCCCCCCCCCCCNCC(=O)N(CC(=O)N(CCCCN)CC(=O)N(CCN)CC(=O)N(CC(N)=O)Cc1cccs1)Cc1cccs1 [Compound 25] (H-[N(tridecyl)Gly][N(2-thienylmethyl)Gly][Nlys][Gly(N-2-aminoethyl)][N(2-thienylmethyl)Gly]-NH2) | 1.56 to 3.13 | 154 ± 47 (≈ 195 µM) |  |
| CNCC(=O)N(CC(=O)N(CCCCN)CC(=O)N(CCN)CC(=O)N(CC(N)=O)C1CCCCC1)C1CCCCC1 [Position 1] (H-[Sar][Gly(N-cHex)][Nlys][Gly(N-2-aminoethyl)][Gly(N-cHex)]-NH2) |  | > 200 | MIC C. neoformans (C. neoformans [2]): >50.00 µg/mL |
| CCCCCCCCCCCCCNCC(=O)N(C)CC(=O)N(CCCCN)CC(=O)N(CCN)CC(=O)N(CC(N)=O)C1CCCCC1 [Position 2] (H-[N(tridecyl)Gly][Sar][Nlys][Gly(N-2-aminoethyl)][Gly(N-cHex)]-NH2) |  | > 200 | MIC C. neoformans (C. neoformans [2]): 6.25 µg/mL (≈ 8.99 µM) |
| CCCCCCCCCCCCCNCC(=O)N(CC(=O)N(C)CC(=O)N(CCN)CC(=O)N(CC(N)=O)C1CCCCC1)C1CCCCC1 [Position 3] |  | 83 (≈ 118 µM) | MIC C. neoformans (C. neoformans [2]): 3.13 µg/mL (≈ 4.43 µM) |
| CCCCCCCCCCCCCNCC(=O)N(CC(=O)N(CCCCN)CC(=O)N(C)CC(=O)N(CC(N)=O)C1CCCCC1)C1CCCCC1 [Position 4] (H-[N(tridecyl)Gly][Gly(N-cHex)][Nlys][Sar][Gly(N-cHex)]-NH2) |  | 84 (≈ 114 µM) | MIC C. neoformans (C. neoformans [2]): 3.13 µg/mL (≈ 4.26 µM) |
| CCCCCCCCCCCCCNCC(=O)N(CC(=O)N(CCCCN)CC(=O)N(CCN)CC(=O)N(C)CC(N)=O)C1CCCCC1 [Position 5] (H-[N(tridecyl)Gly][Gly(N-cHex)][Nlys][Gly(N-2-aminoethyl)][Sar]-NH2) |  | > 200 | MIC C. neoformans (C. neoformans [2]): 6.25 µg/mL (≈ 8.99 µM) |
